In paper PMC9143738, “New Chemotypes for the Inhibition of (p)ppGpp Synthesis in the Quest for New Antimicrobial Compounds” (Molecules, 2022):

How the values were obtained:
Assay type in all cases: binding, S. equisimilis
[1] = target: T1, RelSeq SYNTH (residues 79–385) (Streptococcus dysgalactiae subsp. equisimilis, UniProt Q54089); assay: Thermal shift assay on RelSeq SYNTH; conditions: titration 0.3–10 mM, pH 8
T1 construct: His-tag (C); made in house; host or cells: BL21(DE3) Escherichia coli
T1 sequence (Q54089 79-385): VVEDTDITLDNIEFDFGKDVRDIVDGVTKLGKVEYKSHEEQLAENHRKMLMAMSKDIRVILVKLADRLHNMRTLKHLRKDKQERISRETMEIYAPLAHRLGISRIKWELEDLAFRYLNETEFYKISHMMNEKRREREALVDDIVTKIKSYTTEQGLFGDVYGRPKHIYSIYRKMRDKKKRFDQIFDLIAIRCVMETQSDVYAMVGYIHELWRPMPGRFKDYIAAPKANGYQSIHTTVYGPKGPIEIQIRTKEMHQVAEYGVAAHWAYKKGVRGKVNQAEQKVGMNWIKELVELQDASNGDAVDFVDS
Description: (§1) Thermal shift assays on selected fragments vs. RelSeq constructs. The binding of the selected fragments to RelSeq constructs was assessed by titration of the protein in thermal shift assays, performed using a Step One Real-Time PCR system (Thermo Fisher Scientific, Waltham, MA, USA). […] Assays were performed in triplicate at a final volume of 15 µL in MicroAmp™ Fast Optical 48-well reaction plates (Thermo Fisher Scientific, Waltham, MA, USA) sealed with adhesive films. Plates were heated from 25 to 90 °C with a heating rate of 0.5 °C/min. The Kd of protein–ligand complexes engaged by RelSeq constructs with the tested fragments was calculated from the plot of protein melting temperature variations as a function of fragment concentrations with the equation for Ligand Binding (1 site) provided with the software GraFit 5.0 (Erithacus Software, Staines, UK).

RelSeq 1–385 [2] = target: T2, RelSeq 1–385 (Streptococcus dysgalactiae subsp. equisimilis, UniProt Q54089); assay: Thermal shift assay on RelSeq 1–385
T2 construct: His-tag (C); host or cells: BL21(DE3) Escherichia coli
T2 sequence (Q54089 1-385): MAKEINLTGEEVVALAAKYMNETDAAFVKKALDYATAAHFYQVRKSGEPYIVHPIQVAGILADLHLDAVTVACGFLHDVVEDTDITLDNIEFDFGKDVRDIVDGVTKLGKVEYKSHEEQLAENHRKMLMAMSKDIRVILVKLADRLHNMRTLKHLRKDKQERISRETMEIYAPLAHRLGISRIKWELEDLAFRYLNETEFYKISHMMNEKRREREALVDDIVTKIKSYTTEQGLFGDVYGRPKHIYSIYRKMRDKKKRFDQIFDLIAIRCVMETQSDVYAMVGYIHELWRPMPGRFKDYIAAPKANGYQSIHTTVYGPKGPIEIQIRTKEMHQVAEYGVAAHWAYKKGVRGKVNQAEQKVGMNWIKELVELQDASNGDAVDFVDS
Description: Thermal shift is an experimental technique in which protein thermal denaturation is monitored following the increase in fluorescence reported by a protein-bound dye. In particular, an environment-sensitive hydrophobic dye (e.g., SYPRO Orange) binds to hydrophobic regions that become progressively exposed during thermal denaturation, resulting in an increase in its fluorescence emission. Since the binding of small molecules (e.g., fragments) to the protein can cause conformational changes that affect its melting temperature, this technique allows the screening of several compounds in a range of concentrations without consuming sizeable amounts of protein.
We therefore evaluated the affinity of the 18 fragments selected from our in silico screening for the bifunctional protein RelSeq by titration of the protein in a thermal shift assay (Table 1).
as §1, with “USA). Assays were performed in 20 mM Tris-HCl, pH 8, containing 150 mM NaCl. The final protein concentration was kept at 0.5 mg/mL for all RelSeq constructs, and the fluorescent Protein Thermal Shift Dye (Thermo Fisher Scientific, Waltham, MA, USA) was used to monitor protein unfolding within the excitation/emission ranges 470–505/540–700 nm.” for “USA).”

[3] = target: T3, RelSeq HYD (residues 1–224) (Streptococcus dysgalactiae subsp. equisimilis, UniProt Q54089); assay: Thermal shift assay on RelSeq HYD; conditions: titration 0.3–10 mM, pH 8
T3 construct: His-tag (C); made in house; host or cells: BL21(DE3) Escherichia coli
T3 sequence (Q54089 1-224): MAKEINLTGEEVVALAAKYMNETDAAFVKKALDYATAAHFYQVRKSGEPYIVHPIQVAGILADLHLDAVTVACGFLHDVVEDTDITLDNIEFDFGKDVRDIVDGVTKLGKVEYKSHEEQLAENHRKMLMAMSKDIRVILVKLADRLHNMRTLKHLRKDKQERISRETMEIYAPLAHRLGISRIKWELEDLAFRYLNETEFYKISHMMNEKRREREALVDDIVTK
Description: as §1

RelSeq 1–385 [4] = target: T2, RelSeq 1–385; assay: Tryptophan assay; conditions: read-out: Kd RelSeq 1–385 measured by tryptophan assay (converted)
Description: With the aim of studying protein–ligand interactions between RelSeq constructs and selected fragments, we evaluated the use of different techniques, such as tryptophan assay, microscale thermophoresis (MST), isothermal calorimetry (ITC) or thermal shift assay (TSA). The tryptophan assay is based on ligand-induced conformational changes in the local environment surrounding tryptophan residues in the target protein. Irradiation at 280 nm is followed by the detection of tryptophan fluorescence emission at different wavelengths. We used this technique to measure the Kd values of the natural substrates GDP and ATP (see below), but it is not applicable in the case of fragments due to their high absorbance at 280 nm. On the other hand, the currently available protein-labeling reagents for MST were not compatible with our protein constructs. We chose TSA over ITC due to its higher potential throughput and lower amount of protein required.

RelSeq 1–385 [5] = target: T2, RelSeq 1–385; assay: STD-NMR with RelSeq (1–385); conditions: fragment:protein ratio 1000:1; fragment concentration 3 mM
Description: (§2) The relatively weak affinity of the fragments measured by TSA directed us towards NMR methods to assess the specificity of the fragments-protein interactions. […] In particular, STD (Saturation Transfer Difference) exploits NOE effects between the protein and the ligand to map target–ligand interactions and to characterize biologically relevant complexes.
(§3) STD-NMR experiments on selected fragments vs. RelSeq constructs. Experiments were performed on a 600 MHz Bruker Avance spectrometer. All experiments were acquired at 298 and 283 K on the free ligands in deuterated phosphate buffer pH 7.4. A DMSO-d6 percentage of about 5% was added to dissolve the fragments. In 1D spectra, water suppression was achieved by excitation sculpting sequence. STD NMR experiments were performed using WATERGATE 3-9-19 pulse sequence for water suppression. On-resonance irradiation of the protein was performed at a chemical shift of −0.05 ppm and 10 ppm; off-resonance irradiation was applied at 200 ppm, where no protein signals were visible. Selective pre-saturation of the protein was achieved by a train of Gauss-shaped pulses of 49 ms in length each. STD spectra were acquired with a saturation time of 2.94 s for all compounds. Blank experiments were conducted in the absence of protein in order to avoid artifacts.

RelSeq HYD (1–224) = target: T4, RelSeq HYD (1–224) (Streptococcus dysgalactiae subsp. equisimilis, UniProt Q54089); assay: STD-NMR with RelSeq HYD; conditions: fragment:protein ratio 1000:1; fragment concentration 3 mM
T4 construct: His-tag (C); made in house; host or cells: BL21(DE3) Escherichia coli
T4 sequence (Q54089 1-224): as above
Description: as §2, §3

RelSeq SYNTH (79–385) = target: T5, RelSeq SYNTH (79–385) (Streptococcus dysgalactiae subsp. equisimilis, UniProt Q54089); assay: STD-NMR with RelSeq SYNTH; conditions: fragment:protein ratio 1000:1; fragment concentration 3 mM
T5 construct: His-tag (C); made in house; host or cells: BL21(DE3) Escherichia coli
T5 sequence (Q54089 79-385): as the sequence (Q54089 79-385) above
Description: as §2, §3

[6] = thermal shift assay, titration 0.3–10 mM, pH 8

| Structure (SMILES) | Kd RelSeq HYD [3] | Kd [1] | Kd (RelSeq 1–385 [2]) | also measured |
| --- | --- | --- | --- | --- |
| O=C(O)c1cc2nc[nH]c2cc1C(=O)O [B4] | No binding |  |  | Kd RelSeq SYNTH [1]: No binding; Kd RelSeq 1–385 (RelSeq 1–385 [2]; [6]): No binding |
| Nc1ccc(C(=O)O)c(Cl)c1 [A6] | No binding | 6.5 ± 1.2 mM | 4.3 ± 1.1 mM |  |
| Nc1ncnc2c1ncn2[C@@H]1O[C@H](COP(=O)(O)OP(=O)(O)OP(=O)(O)O)[C@@H](O)[C@H]1O [ATP, reference compound] |  |  |  | Kd (RelSeq 1–385 [4]): 390 µM; Kd (RelSeq 1–385 [2]; thermal shift assay, titration 0.3–10 mM, pH 8, read-out: Kd RelSeq 1–385): 0.49 ± 0.09 mM |
| O=C(O)c1cccc2[nH]ccc12 [I3] | No binding | 9.9 ± 4.5 mM | 4 ± 0.5 mM |  |
| Nc1c(Cl)cc(Cl)cc1C(=O)O [A2] | No binding |  |  | Kd RelSeq SYNTH [1]: No binding; Kd RelSeq 1–385 (RelSeq 1–385 [2]; [6]): No binding; STD-NMR interaction with RelSeq (1–385) (RelSeq 1–385 [5]): did not show any significant interaction |
| O=C(O)c1ccc2[nH]ccc2c1 [I2] | No binding | 5.5 ± 0.9 mM | 2.5 ± 0.6 mM |  |
| O=C(O)c1ccc2nn[nH]c2c1 [BT1] | No binding |  |  | Kd RelSeq SYNTH [1]: No binding; Kd RelSeq 1–385 (RelSeq 1–385 [2]; [6]): No binding |
| Nc1cccc(C(=O)O)c1 [A4] | No binding | 9.8 ± 2.8 mM | 6.6 ± 0.1 mM |  |
| O=C(O)c1ccc2[nH]cnc2c1 [B2] |  |  |  | Kd RelSeq SYNTH [1]: No binding; Kd RelSeq 1–385 (RelSeq 1–385 [2]; [6]): Biphasic; Kd [3]: 1.9 ± 0.7 mM |
| O=C(O)c1ccc2cc[nH]c2c1 [I1] | No binding | 9.6 ± 1.5 mM | 6.5 ± 1.1 mM |  |
| O=C(O)c1ccc2ocnc2c1 [BO1] | No binding | 2.7 ± 0.6 mM | 2.2 ± 0.3 mM |  |
| OCc1ccc2[nH]cnc2c1 [B1] | No binding |  |  | Kd RelSeq SYNTH [1]: No binding; Kd RelSeq 1–385 (RelSeq 1–385 [2]; [6]): No binding; STD-NMR interaction with RelSeq (1–385) (RelSeq 1–385 [5]): did not show any significant interaction |
| O=C(O)c1cccc2[nH]cnc12 [B3] |  | 4.3 ± 0.4 mM | 3.4 ± 0.3 mM | Kd [3]: 3.3 ± 0.9 mM |
| CC(C)c1cc(C(=O)O)nc2ncnn12 [TP1] | No binding | 8.3 ± 1.6 mM | 3.4 ± 0.8 mM |  |
| O=C(O)Cc1c[nH]c2ccc(F)cc12 [I4] | No binding | > 15 mM | 3.2 ± 0.7 mM |  |
| Nc1ccc(F)cc1C(=O)O [A3] | No binding | 5.5 ± 0.9 mM | 1.5 ± 0.1 mM |  |
| COc1cc(C(=O)O)ccc1N [A7] | No binding | 4.3 ± 0.5 mM | 4 ± 0.9 mM |  |
| COc1ccc(C(=O)O)cc1N [A5] | No binding | 2.2 ± 0.4 mM | 1.1 ± 0.2 mM |  |
| Nc1ccccc1C(=O)O [A1] | No binding | 10.8 ± 2.2 mM | 1.2 ± 0.3 mM | STD-NMR interaction with RelSeq HYD (1–224) (RelSeq HYD (1–224)): did not produce any magnetization transfer; STD-NMR interaction with RelSeq SYNTH (79–385) (RelSeq SYNTH (79–385)): Comparable overall STD intensities; STD-NMR interaction with RelSeq (1–385) (RelSeq 1–385 [5]): good interaction for the aromatic protons |
